Test results as given in ChEMBL document CHEMBL1201862, “PubChem BioAssay data set” (2004).
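Cells were grown in 96-well plates and exposed to each compound for 48 hours at five concentrations; endpoints were interpolated linearly between bracketing concentrations, or set to the highest concentration if not reached. GI50 = concentration required for 50% inhibition of growth.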 The source made the active and inactive calls. No stated cut-off is given here; in the data, active = GI50 up to about 1.1 µM and inactive = higher.

Assays:
Assay in all cases: DTP human tumour cell line panel, 48 h
[1] = system: SF-295
[2] = system: UACC-62
[3] = system: HT-29
[4] = system: DMS-273
[5] = system: ACHN
[6] = system: LOX IMVI
[7] = system: NCI-H23
[8] = system: OVCAR-3
[9] = system: SNB-75
[10] = system: RPMI-8226
[11] = system: HCC 2998
[12] = system: SK-MEL-28
[13] = system: A549
[14] = system: KM12
[15] = system: SK-MEL-2
[16] = system: K562
[17] = system: SW-620

`CSc1ccc(/C=C2\CN(C)C/C(=C\c3ccc(SC)cc3)C2=O)cc1` was tested, and the GI50 [1] was 21.1 µM (inactive), the GI50 [2] was 55.8 µM (inactive) and the GI50 [3] was 15.2 µM (inactive). For the same compound, the GI50 [4] was 14.1 µM (inactive), the GI50 [5] was 40.6 µM (inactive) and the GI50 [6] was 6.47 µM (inactive). The GI50 [7] was 4.52 µM (inactive), the GI50 [8] was 13.8 µM (inactive) and the GI50 [9] was 12.5 µM (inactive). For the same compound, the GI50 [10] was 2.52 µM (inactive), the GI50 [11] was 79.4 µM (inactive) and the GI50 [12] was > 100 µM (inactive). For the same compound, the GI50 [13] was > 100 µM (inactive), the GI50 [14] was 8.75 µM (inactive) and the GI50 [15] was 39.4 µM (inactive). The GI50 [16] was 22.2 µM (inactive) and the GI50 [17] was 23 µM (inactive).

With `CC(=O)C1=C(O)C(N)C2Cc3c(c(O)c4c(O)c(C)ccc4c3C)C(=O)C2(O)C1=O` (centres undefined) the GI50 [1] was 1.26 µM (inactive), the GI50 [2] was 1.25 µM (inactive) and the GI50 [3] was 2.23 µM (inactive). The GI50 [4] was 1.73 µM (inactive), the GI50 [5] was 1.35 µM (inactive) and the GI50 [6] was 0.973 µM (active). For the same compound, the GI50 [7] was 1.75 µM (inactive), the GI50 [8] was 1.3 µM (inactive) and the GI50 [9] was 3.11 µM (inactive). The GI50 [10] was 1.27 µM (inactive), the GI50 [11] was 3.28 µM (inactive) and the GI50 [12] was 2.06 µM (inactive). For the same compound, the GI50 [13] was 1.61 µM (inactive), the GI50 [14] was 1.9 µM (inactive) and the GI50 [15] was 3.56 µM (inactive). The GI50 [16] was 1.87 µM (inactive) and the GI50 [17] was 2.79 µM (inactive).
